The record followed here is patent US20090221539A1, “METHOD OF DETECTING AND REDUCING BOAR TAINT USING NUCLEAR RECEPTORS” (UNIVERSITY OF GUELPH, priority 2005, published 2009).

In series [1] the test system is pgCAR. The series can be described thus: Dual luciferase reporter assay in HepG2 cells transiently transfected with pgCAR. In kind it is cell-based, pig. The note with it: for reporter gene expression (fold-change relative to DMSO vehicle): pgCAR, CYP2B6 response element firefly luciferase, hormones at 10 μM. For orientation: Reporter assays use an easily measured gene product as a stand-in for the process of interest.
Method: Dual Luciferase Reporter Assay: Pig, human ? mouse ? receptors were tested in a transient transfection assay against a panel of hormones and xenobiotics. Hormones and TCPOBOP were tested at 10 μM with the exception of CITCO at 1 μM. The effects of ligands are expressed as fold-change relative to vehicle (dimethylsulfoxide 1:2000) control for each receptor.
The dual luciferase reporter assay (Promega) was used as a screening tool to identify ligands (hormone and xenobiotic compounds) that regulate the nuclear receptor CAR. The dual luciferase assay consists of 3 plasmids. A pgCAR or hCAR or mCAR expression plasmid containing the full length wild type isoform is used together with a reporter construct, consisting of the CAR response gene promoter element from CYP2B6 regulating the expression of the firefly luciferase gene. […] The Promega Dual-Luciferase Reporter Assay System (Cat#E11960) was used to determine the hormones and xenobiotics that modulate the CAR responsive genes by measuring the amount light produced by the firefly luciferase gene construct.
The dual luciferase assay method uses HepG2 cells (that express RXR) plated at 50% confluence onto 96 well cell culture plates. The cells are transiently transfected after 1 day with pgCAR expression plasmid, reporter plasmid (containing the CAR response element) and the internal control plasmid, which are pooled treatments to ensure all samples receive the same amount of plasmids. On day two, control or ligand supplemented media are added to cells (ligands from FIG. 4 at 10 ug/ml in DMSO) for a total of n=15 for each ligand. On day four, the media is removed and cells are washed with PBS to remove detached cells and remaining media. The cell monolayer is then treated with Passive lysis buffer and the cell lysate is then transferred to a test tube for analysis. Luminometer readings are made on a Berthold Detection systems Sirius single tube luminometer with dual injectors. The test tube is loaded into the measurement chamber and the LARII luciferase reagent is injected into the cell lysate and a 10 second firefly luciferase relative light unit (RLU) measurement is recorded. The Stop & Glo reagent is then injected into the same tube and the Renella luciferase RLU is measured. The ratio of reporter to control luminescence is used to normalize transfection efficiencies between plates; the normalized values are then statistically analyzed by t-tests to determine how efficiently CAR activates the firefly luciferase reporter gene in response to ligand treatment.

The subject of series [2] is 3MI metabolism. The series can be described thus: 3MI metabolism assay: production of HMOI and 3MOI in primary pig hepatocytes after inducer treatment. It counts as cell-based. The note with it: for 3MI metabolism: CITCO 1.0 μM. Here is the method:
(§1) Each data point represents results obtained from 3 separate experiments run in triplicate.
(§2) Hepatocytes were prepared by a modification of a collagenase perfusion method described previously (Sinclair et al., 2005). Briefly, one hepatic lobe was immediately catheterized by selecting the largest vessel at the cut end. Blood was then flushed from the liver by perfusion with 25 mL/min of medium containing 10 mM hydroxyethyl piperazine ethane (HEPES), 1 mM EGTA and HBSS (pH 7.4) delivered at 37° C. The lobe was then perfused for 5 minutes with the same medium without EGTA and then with William's E Media (pH 7.4) containing 10 mM HEPES and 0.7 mg/mL collagenase type 1 for 10 to 25 minutes until the hepatocytes appeared to be fully dissociated.
(§3) All remaining experimental procedures were carried out under sterile conditions. The lobe was gently minced with a scalpel to disassociate cells in attachment medium containing 10 mM HEPES, 10% (v/v) fetal bovine serum, 1% (v/v) penicillin-streptomycin and 50 Units/L insulin in William's E media (pH 7.4), at 4° C. Cells were filtered through gauze and centrifuged at 15×g for 3 minutes. The cell pellet was washed in attachment media and cell viability was determined by trypan blue exclusion. […] Hepatocytes were then plated on Primaria™ 60 mm tissue culture dishes (VWR International Ltd., Mississauga, ON) at a density of 2.25×10^6 cells in 3.0 mL attachment media, and kept in a incubator at 37° C. supplied with 95% air and 5% CO2. After 4 hours to allow for attachment of the cells, the medium was replaced with serum-free medium that contained 10 mM HEPES, 10 mM pyruvate, 0.35 mM proline, 1% (v/v) penicillin-streptomycin and 50 Units/L insulin in William's E media (pH 7.4) with treatments. For inducer experiments, hepatocytes were treated for 19 hours prior to the determination of P450 activities and 3MI metabolism.
To measure 3MI metabolism in primary cultured hepatocytes, cells were incubated with 500 μM 3MI for 6 hours, after which an equal volume of acetonitrile was added to stop the reaction. The production of metabolites was then determined by HPLC analysis as previously described (Terner et al., in press). Formation of metabolites was determined by interpolation of standard curves made from authentic standards HMOI and 3MOI run in duplicate.

For series [3], the system named is CYP2A6. The series can be described thus: CYP2A6 activity (coumarin 7-hydroxylase, COH assay) in primary pig hepatocytes after inducer treatment. As to conditions: for CYP2A6 activity: isoproterenol 500 μM, CITCO 1.0 μM. Here is the method: as §1, §2, §3
(§4) To determine the rate of p-nitrophenol (PNP) hydroxylase activity and coumarin 7-hydroxylase (COH) activity, hepatocytes were incubated with 500 μM PNP or 100 μM coumarin according to the procedures previously described (Terner et al, in press). Assays were validated to be linear with time and proportional to number of cells. Production of metabolites was determined in duplicate by interpolation of standard curves made from authentic standards p-nitrocatechol and 7-hydroxycoumarin.

Series [4] relates to SULT2A1. The series can be described thus: SULT2A1 activity in primary porcine Leydig cells after treatment with nuclear receptor ligands ([3H]DHEA to DHEAS conversion). The note with it: primary Leydig cells of mature Yorkshire boars, 24 hours; CITCO 1 μM, TCPOBOP 250 nM, phenobarbital 2 mM, phenytoin 50 μM, rifampicin 10 μM, PCN 10 μM, dexamethasone 0.1 μM, lithocolic acid 100 μM; vs control. It counts as cell-based, pig. Here is the method:
FIG. 1: Effect of nuclear receptor ligands on SULT2A1 activity in porcine Leydig cells. Primary porcine Leydig cells were isolated from mature Yorkshire boars and the SULT2A1 activity was determined. Leydig cells were cultured in the presence of; CITCO (1 μM), TCPOBOP (250 nM), Phenobarbital (2 mM), Phenytoin (50 μM), Rifampicin (10 μM), PCN (10 μM), Dexamethasone (0.1 μM), Cholic Acid (100 μM), and Lithocolic Acid (100 μM) for 24 hours. Treatments are grouped according to the nuclear receptor affected: constitutive androstane receptor (CAR), pregnane X receptor (PXR), glucocorticoid receptor (GR) and farnesoid X receptor (FXR). Values are presented as means±SE of 3 independent experiments with significant differences indicated (*P<0.05).
Mature Yorkshire boars of 175±6 days obtained from the Arkell Swine Research Station at the University of Guelph, Guelph, ON were used for the isolation of Leydig cells. After slaughter, the testes were immediately removed and transported to the laboratory within five minutes. Testicular tissue was sliced into pieces of 1 cm^2×2-3 mm thickness and 100 g of tissue was incubated for 20 minutes in a shaking water bath at 37° C. with 1 mg/ml collagenase (type 1A), 50 μg/ml DNase and 50 μg/ml trypsin inhibitor in 250 ml of TC 199 Media containing 1 g/L bovine serum albumin and 0.1 g/L L-glutamine. Preparations of purified Leydig cells were obtained by layering the collagenase—dispersed testicular cells onto discontinuous Percoll gradients supplemented with HBSS. The preparations were then centrifuged at 1500×g for 15 minutes at 4° C. and the cells present at the 40-60% interface were collected as outlined previously (Raeside & Renaud 1983). Cell viability was determined by trypan blue exclusion. The typical viability of Leydig cells after this procedure was greater than 90%.
To further understand the molecular mechanisms that control SULT2A1 gene transcription, various nuclear receptor ligands were evaluated for their ability to induce SULT2A1 activity in Leydig cells. Aliquots of re-suspended Leydig cells (1×10^6 cells/ml) in TC 199 Media mixture were plated in 24 well plates. The Leydig cells were then treated with various nuclear receptor ligands as outlined in the figure legends in less than 0.5% DMSO vehicle and incubated at 37° C. in 95% air and 5% CO2 for 24 hours.
After the 24 h incubation period, the media was aspirated and approximately 10,000 cpm of [^3H] […] The cells were incubated for 4 h and the media was removed and immediately extracted by Sep-Pak C18 solid-phase chromatography, as described above. Sulfotransferase activity was assayed by measuring the conversion of [^3H] […] DHEAS (conjugate) fractions by liquid scintillation counting. […]

Series [5] has as its system 3β-HSD. The note with it: boar hepatocytes, ligand 8 or 10 hours, vs DMSO.
From the text: (§5) Boar hepatocytes treated with ligands for 8-10 hrs prior to RNA isolation and real time PCR analysis. B-actin was used as the housekeeping gene and DMSO (no hormone treatment) was used as the calibrator. For CYP2A6, CYP2E1, SULT1A1 and UGT2B the primer inefficiencies should not affect the resultant fold changes in this experiment since all hepatocyte treatments come from a single boar and analysis is compared to the no hormone DMSO control. This analysis should be valid since the calibrator is from the same pool of cells.
(§6) Primary boar hepatocytes were treated with seven different CAR ligands identified in objective 2 and 5, with DMSO used as the vehicle control. Primary cells were plated on 60 mm dishes and treated with ligand. The treatments were incubated for 8 or 10 hours and the RNA was extracted from cells in each treatment. Real Time PCR primers were designed for seven genes of interest CYP2A6, CYP2E1, 3β-HSD, 3α-HSD, SULT2A1, SULT1A1, UGT2B, CYP2B6 and pgCAR, with B-actin used as the housekeeping gene for ΔΔCT analysis.
In series [6] the test system is SULT2A1. As to conditions: boar hepatocytes, ligand 8 or 10 hours, vs DMSO.
From the text: as §5, §6
In series [7] the test system is UGT2B. As to conditions: boar hepatocytes, ligand 8 or 10 hours, vs DMSO.
From the text: as §5, §6
Series [8] relates to CYP2E1. The series can be described thus: CYP2E1 activity (PNP hydroxylase assay) in primary pig hepatocytes after inducer treatment. The note with it: isoproterenol 500 μM, hormones and rifampicin 10 μM, CITCO 1.0 μM. Here is the method:
as §1, §2, §3, §4

The test system of series [9] is pgCAR. The series can be described thus: Dual luciferase reporter assay in primary boar hepatocytes transfected with pgCAR. In kind it is cell-based, pig. As to conditions: primary boar hepatocytes with exogenous pgCAR expression plasmid. Here is the method:
FIG. 11. Dose response analysis of CITCO ligand treatment in primary boar hepatocytes. Unlike HepG2 cells, primary hepatocytes have very low basal luciferase expression allowing for the detection of significant fold changes above no hormone control at lower doses.
FIG. 12. Dose response analysis of Phenytoin ligand treatment in primary boar hepatocytes.
FIG. 13. Dual luciferase assay of selected ligand in boar hepatocytes. Selected activators and repressors of pgCAR in HepG2 cells were tested in boar hepatocytes. […] Only reporter gene activations and not repressions are detectable in this cell model.
Transfection experiments using the HepG2 cell line identified compounds that were able to alter pgCAR gene regulation. Experiments performed on primary mouse and human hepatocytes indicate that gene regulation has additional levels of complexity, and CAR is not constitutively active in vivo. This experiment uses a similar methodology as objective 2 except primary boar hepatocytes were used as the cell line. Hepatocytes were transfected with a reporter construct containing the CAR responsive element, an internal control Renilla luciferase construct, and pgCAR or an empty vector as control. Control experiments without pgCAR were conducted to determine if endogenous pgCAR in the hepatocytes could activate the reporter construct. […] The cascade of events leading to gene activation remains unclear.

Setting [10] is: 3-week old male pig hepatocytes, isoproterenol 500 μM, hormones and rifampicin 10 μM, given as increase, FIG. 2 values as percent of control.
[11] abbreviates: adult male hepatocytes, isoproterenol 500 μM, estrone 10 μM, given as increase, FIG. 2 values as percent of control.
Setting [12] is: 3-week old male pig hepatocytes, hormones 10 μM, given as increase, FIG. 2 values as percent of control.
The mark [13] stands for this setting: adult male hepatocytes, hormones and rifampicin 10 μM.
The mark [14] stands for this setting: 3-week old male pig hepatocytes, given as increase, FIG. 2 values as percent of control.

Like-named read-outs stand apart in the source and are kept apart here. A value given as a limit tells only on which side of the number the result lay.

As for `C[C@]12CC[C@H](O)C[C@@H]1CC[C@@H]1[C@@H]2CC[C@]2(C)C=CC[C@@H]12` [5α-androsten-3β-ol], the “reporter gene expression (fold-change relative to DMSO vehicle)” value in series [1] is “significant repressions”.

With `CO[C@H]1/C=C/O[C@@]2(C)Oc3c(C)c(O)c4c(O)c(c(/C=N/N5CCN(C)CC5)c(O)c4c3C2=O)NC(=O)/C(C)=C\C=C\[C@H](C)[C@H](O)[C@@H](C)[C@@H](O)[C@@H](C)[C@H](OC(C)=O)[C@@H]1C` [Rifampicin], in series [2] (setting [10]), the “production of 3MOI” value amounted to 128±10% and the “production of the 3MI metabolite HMOI” value was found to be 151±14%. Moreover, the “decrease in CYP2A6 activity” value in series [3] (male, pig, hepatocytes, 19 h, 10 μM, pH 7.4) is 43±7%.

The compound `C[C@]12CC[C@@H]3c4ccc(O)cc4CC[C@H]3[C@@H]1CCC2=O` [estrone] showed an HMOI production in [2] (setting [11]) of 142±12%.

As for `CC(C)NCC(O)c1ccc(O)c(O)c1` (stereo not shown) [isoproterenol], in series [2] (setting [10]), the “production of 3MOI” value is recorded as “unaffected” and the “production of the 3MI metabolite HMOI” value came out at 150±13%. In series [2] (adult male hepatocytes, isoproterenol 500 μM, estrone 10 μM), the 3MOI production result is listed as “did not alter”. For the same compound, in series [2] (setting [11]), the HMOI production turned out to be 139±12%.

On to `Clc1cnc(Oc2ccc(Oc3ncc(Cl)cc3Cl)cc2)c(Cl)c1` [TCBOPOP, 1,4-bis-[2-(3,5-dichloropyridyl-oxy)]benzene; 3,3′5,5′-tetrachloro-1,4-bis(pyridyl-oxy)benzene], for which the SULT2A1 activity result in series [4] is reported as “did not affect”.

On to `CC(=O)[C@H]1[C@H](C#N)C[C@H]2[C@@H]3CC=C4C[C@@H](O)CC[C@]4(C)[C@H]3CC[C@@]21C` [PCN, Pregnenolone 16α-carbonitrile], for which the SULT2A1 activity entry in series [4] was “only rifampicin resulted in a significant increase”.

For the compound `C[C@]12CCC(=O)C[C@@H]1CC[C@@H]1[C@@H]2CC[C@]2(C)[C@@H](O)CC[C@@H]12` [5α-DHT, 5α dihydrotestosterone], in series [5], the 3β-HSD gene expression entry was “significantly activated”. Moreover, the SULT2A1 gene expression result in series [6] is “significantly activated”. Also, in [7], the UGT2B gene expression result was “significantly activated”.

Regarding `C[C@@]12CCC[C@H]1[C@@H]1CC[C@H]3C[C@@H](O)CC[C@]3(C)[C@H]1CC2` [androstanol], the “production of 3MOI” value in series [2] (setting [10]) is listed as “did not affect”. Besides, the “production of the 3MI metabolite HMOI” value in series [2] (setting [10]) was “did not affect”. The CYP2A6 activity entry in series [3] (setting [12]) and in [3] (setting [13]) was “did not alter” each time. In addition, the CYP2E1 activity entry in series [8] (setting [14]) and in series [8] (adult male hepatocytes) was “did not alter” in each case.

As for `C[C@]12CC[C@@H](O)C[C@@H]1CC[C@@H]1[C@@H]2CC[C@]2(C)C=CC[C@@H]12` [androstenol], in series [2] (setting [10]), the “production of 3MOI” value is “did not affect” and the “production of the 3MI metabolite HMOI” value is reported as “did not affect”.

For `O=C1NC(=O)C(c2ccccc2)(c2ccccc2)N1` [phenytoin], the SULT2A1 activity result in [4] was “significant increase”. Further, the “activation of the luciferase reporter construct” value in series [9] was “activated the reporter construct”.

Take `C[C@]12CC[C@H]3[C@@H](CCC4=CC(=O)CC[C@@]43C)[C@@H]1CC[C@@H]2O` [testosterone]: the “production of 3MOI” value in series [2] is “did not affect”. In addition, the “production of the 3MI metabolite HMOI” value in series [2] is “did not affect”. Besides, the CYP2A6 activity entry in series [3] (setting [12]) and in series [3] (setting [13]) was “did not alter” in each case. In addition, the CYP2E1 activity result in [8] (setting [14]) and in series [8] (adult male hepatocytes) was “did not alter” in each case.

For the compound `C[C@@]12C=CC[C@H]1[C@@H]1CC=C3C[C@@H](O)CC[C@]3(C)[C@H]1CC2` [5,16-androstadien-3β-ol], the “reporter gene expression (fold-change relative to DMSO vehicle)” value in series [1] is “significant repressions”.

As to `Clc1ccc(-c2nc3sccn3c2C=NOCc2ccc(Cl)c(Cl)c2)cc1` [CITCO, 6-(4-chlorophenyl)imidazo[2,1-b][1,3]thiazole-5-carbaldehyde O-(3,4-dichlorobenzyl)oxime], the 3MI metabolism result in series [2] (3-week old male hepatocytes) was “did not increase CYP2E1 or CYP2A6 activity, or affect 3MI metabolism”; in series [2] (adult male hepatocytes, rifampicin 10 μM), “did not increase CYP2E1 or CYP2A6 activity, or affect 3MI metabolism”. Also, in series [4], the SULT2A1 activity result is “did not affect”. Besides, the “dose at which CITCO significantly activates the pgCAR receptor” value in [1] (dose response 0.01-10.0) is at least 0.5 µM. Further, in series [1], the “reporter gene expression (fold-change relative to DMSO vehicle)” value is “significant activation”. Moreover, in [9], the “activation of the luciferase reporter construct” value is given as “activated the reporter construct”.
